# Source: patent publication US9024038B2 (Purdue Research Foundation, priority 2010, dated 2015)
# Like-named read-outs stand apart in the source and are kept apart here.
# Legend:
# HIV-1 protease = HIV-1 protease (Human immunodeficiency virus type 1 group M subtype B, UniProt P04585); assay: HIV-1 protease enzyme inhibitory assay (protocol of Toth and Marshall); format: biochemical; settings: for fold change in Ki compared to inhibitor 35a: loss of enzyme inhibitory potency vs 35a
# HIV-1LAI = assay: Antiviral assay in MT-2 human T-lymphoid cells exposed to HIV-1LAI, MTT readout; format: cell-based
# HIV-1ERS104pre (X4) = assay: Antiviral activity in PHA-PBMs, inhibition of p24 Gag protein production, wild-type clinical isolate; format: cell-based
# Source text: (§1) Inhibitor 35a was examined for its activity against a panel of multidrug-resistant HIV-1 variants and compared it with that of other clinically available PIs including 1a. […] This inhibitor outperformed the clinically available PIs with high antiviral activity and seems to compare well with 1a, which currently stands as the leading PI for the treatment of drug-resistant HIV infection.
# HIV-1MDR/B (X4) = assay: Antiviral activity in PHA-PBMs, p24 Gag, multidrug resistant clinical isolate; format: cell-based; settings: for EC50: PHA-PBMs, p24 Gag
# Source text: as §1
# HIV-1MDR/G (X4) = assay: as above; format: cell-based
# Source text: as §1
# HIV-1MDR/JSL (R5) = assay: as above; format: cell-based; settings: for EC50: PHA-PBMs, p24 Gag
# Source text: as §1
# HIV-1MDR/MM (R5) = assay: as above; format: cell-based
# Source text: as §1
# HIV-1MDR/TM (X4) = assay: as above; format: cell-based
# Source text: as §1
# HIV-1MRD/C (X4) = assay: as above; format: cell-based
# Source text: as §1
# [1] = Human immunodeficiency virus 1, T-lymphoid
# [2] = Human immunodeficiency virus 1, MT2
# [3] = Human immunodeficiency virus 1, T-lymphoid, read-out: Antiviral IC50, (nM)
# [4] = Human immunodeficiency virus 1, MT2, MT-2 cells, 100 TCID50s of HIV-1LAI, MTT assay, read-out: IC50
structure (smiles),measurement,setting,value
COc1ccc(C[C@H](NC(=O)O[C@H]2CCO[C@H]3OCC[C@H]32)[C@H](O)CN(C[C@H]2CCC(=O)N2)S(=O)(=O)c2ccc(N)cc2)cc1 [compound 4],Ki,HIV-1 protease,< 10 nM
same,IC50,HIV-1LAI; [1],> 1000 nM
"COc1ccc(S(=O)(=O)N(CC(C)C)C[C@@H](O)[C@H](Cc2ccccc2)NC(=O)O[C@@H]2CCO[C@@H]3OCC[C@@H]32)cc1 [35b, (3aR,4R,7aS)-Hexahydro-2H-furo[2,3-b]pyran-4-yl((2S,3R)-3-hydroxy-4-(N-isobutyl-4-methoxyphenylsulfonamido)-1-phenylbutan-2-yl)carbamate]",fold change in Ki compared to inhibitor 35a,HIV-1 protease,> 20 fold
same,Ki,HIV-1 protease; read-out: Ki,0.068 nM
same,IC50,HIV-1LAI; [2],19 nM
same,IC50,"HIV-1LAI; Human immunodeficiency virus 1, MT2, read-out: antiviral activity ID50",19 nM
CCNC1CO[C@@H]2OCC[C@H](OC(=O)N[C@@H](Cc3ccccc3)[C@H](O)CN(CC(C)C)S(=O)(=O)c3ccc4nc(NC(C)C)sc4c3)C12 (stereo partly drawn),Ki,HIV-1 protease,< 0.1 nM
same,IC50,HIV-1LAI; [3],< 10 nM
CC(C)CN(C[C@@H](O)[C@H](Cc1ccccc1)NC(=O)O[C@H]1CCO[C@H]2OCC(O)C21)S(=O)(=O)c1ccc2nc(NC(C)C)sc2c1 (stereo partly drawn),Ki,HIV-1 protease,< 0.1 nM
same,IC50,HIV-1LAI; [3],< 10 nM
COc1ccc(S(=O)(=O)N(CC(C)C)C[C@@H](O)[C@H](Cc2ccccc2)NC(=O)O[C@H]2CCO[C@H]3OC[C@H](OCc4ccccc4)[C@H]32)cc1,Ki,HIV-1 protease,< 1 nM
same,IC50,HIV-1LAI; [3],< 1 nM
CC(C)CN(C[C@@H](O)[C@H](Cc1ccccc1)NC(=O)O[C@H]1CCO[C@H]2OCC[C@H]21)S(=O)(=O)c1ccc2nc(NC(C)C)oc2c1,IC50,"HIV-1LAI; Human immunodeficiency virus 1, T-lymphoid, Examples Table 3, scored, read-out: Antiviral IC50",< 10 nM
"COc1ccc(S(=O)(=O)N(CC(C)C)C[C@@H](O)[C@H](Cc2ccccc2)NC(=O)O[C@H]2CCO[C@H]3CCC[C@H]32)cc1 [35d, (4S,4aR,7aS)-Octahydrocyclopenta[b]pyran-4-yl((2S,3R)-3-hydroxy-4-(N-isobutyl-4-methoxyphenylsulfonamido)-1-phenylbutan-2-yl)carbamate]",Ki,HIV-1 protease; read-out: Ki,1.43 nM
COc1cccc(C[C@H](NC(=O)O[C@H]2CCO[C@H]3OCC[C@H]32)[C@H](O)CN(CC(C)C)S(=O)(=O)c2ccc3nc(NC(C)C)sc3c2)c1,Ki,HIV-1 protease,< 0.1 nM
same,IC50,HIV-1LAI; [3],< 1 nM
COc1ccc(S(=O)(=O)N(CC(C)C)C[C@@H](O)[C@H](Cc2ccccc2)NC(=O)O[C@H]2CCC[C@H]3CCC[C@H]32)cc1 [35e],Ki,HIV-1 protease; read-out: Ki,9 nM
same,IC50,HIV-1LAI; [2],> 1000 nM
same,antiviral activity,"HIV-1LAI; MT-2 cells, HIV-1LAI",no appreciable antiviral activity
COc1ccc(C[C@H](NC(=O)O[C@H]2CCO[C@H]3OC[C@H](O)[C@H]32)[C@H](O)CN(CC(C)C)S(=O)(=O)c2ccc(OC)cc2)cc1,Ki,HIV-1 protease,< 0.1 nM
same,IC50,HIV-1LAI; [3],< 10 nM
COc1ccc(S(=O)(=O)N(CC(C)C)C[C@@H](O)[C@H](Cc2ccccc2)NC(=O)O[C@H]2CCO[C@H]3OC[C@H](O)[C@H]32)cc1,Ki,HIV-1 protease,< 0.1 nM
same,IC50,HIV-1LAI; [3],< 10 nM
"CC(C)(C)NC(=O)[C@@H]1C[C@@H]2CCCC[C@@H]2CN1C[C@@H](O)[C@H](Cc1ccccc1)NC(=O)[C@H](CC(N)=O)NC(=O)c1ccc2ccccc2n1 [saquinavir, reference compound]",IC50,HIV-1LAI; [2],15 nM
COc1cccc(C[C@H](NC(=O)O[C@H]2CCO[C@H]3OCC[C@H]32)[C@H](O)CN(CC(C)C)S(=O)(=O)c2ccc3nc(NC(C)C)oc3c2)c1,Ki,HIV-1 protease,< 0.1 nM
same,IC50,HIV-1LAI; [3],< 10 nM
CC(C)CN(C[C@@H](O)[C@H](Cc1ccccc1)NC(=O)O[C@H]1CCO[C@H]2OCC[C@H]21)S(=O)(=O)c1ccc2nc(NC(C)C)sc2c1,Ki,HIV-1 protease,< 0.1 nM
same,IC50,HIV-1LAI; [3],< 1 nM
COC(=O)N[C@H](C(=O)N[C@@H](Cc1ccccc1)[C@@H](O)CN(Cc1ccc(-c2ccccn2)cc1)NC(=O)[C@@H](NC(=O)OC)C(C)(C)C)C(C)(C)C [ATV],EC50,HIV-1ERS104pre (X4),2.7 ± 0.6 nM
same,EC50,HIV-1MDR/B (X4),470 ± 7 nM
same,fold change of EC50 compared to wild-type HIV-1ERS104pre,HIV-1MDR/B (X4); number in parentheses,174 fold
same,EC50,"HIV-1MDR/G (X4); PHA-PBMs, p24 Gag",19 ± 8 nM
same,fold change of EC50 compared to wild-type HIV-1ERS104pre,HIV-1MDR/G (X4); number in parentheses,7 fold
same,EC50,HIV-1MDR/JSL (R5),293 ± 99 nM
same,fold change of EC50 compared to wild-type HIV-1ERS104pre,HIV-1MDR/JSL (R5); number in parentheses,109 fold
same,EC50,"HIV-1MDR/MM (R5); PHA-PBMs, p24 Gag",205 ± 24 nM
same,fold change of EC50 compared to wild-type HIV-1ERS104pre,HIV-1MDR/MM (R5); number in parentheses,76 fold
same,EC50,"HIV-1MDR/TM (X4); PHA-PBMs, p24 Gag",75 ± 3 nM
same,fold change of EC50 compared to wild-type HIV-1ERS104pre,HIV-1MDR/TM (X4); number in parentheses,28 fold
same,EC50,"HIV-1MRD/C (X4); PHA-PBMs, p24 Gag",39 ± 3 nM
same,fold change of EC50 compared to wild-type HIV-1ERS104pre,HIV-1MRD/C (X4); number in parentheses,14 fold
COc1ccc(C[C@H](NC(=O)O[C@H]2CCO[C@H]3OCC[C@H]32)[C@H](O)CN(CC(C)C)S(=O)(=O)c2ccc(N)cc2)cc1 [compound 1],Ki,HIV-1 protease,< 1 nM
same,IC50,HIV-1LAI; [1],1 to 10 nM
CC(C)CN(C[C@@H](O)[C@H](Cc1ccccc1)NC(=O)O[C@H]1CCO[C@H]2OCC[C@H]21)S(=O)(=O)c1ccc(CO)cc1 [compound 37],Ki,HIV-1 protease; read-out: Ki,0.085 nM
same,IC50,HIV-1LAI; [2],4.5 nM
COc1ccc(S(=O)(=O)N(CC(C)C)C[C@@H](O)[C@H](Cc2ccccc2)NC(=O)O[C@H]2CCO[C@H]3OC[C@H](OC)[C@H]32)cc1,Ki,HIV-1 protease,< 0.1 nM
same,IC50,HIV-1LAI; [3],< 1 nM
COc1ccc(C[C@H](NC(=O)O[C@H]2CCO[C@H]3OCC[C@H]32)[C@H](O)CN(CC(C)C)S(=O)(=O)c2ccc3nc(NC(C)C)oc3c2)cc1,Ki,HIV-1 protease,< 0.1 nM
same,IC50,HIV-1LAI; [3],< 10 nM
CC(C)CN(C[C@@H](O)[C@H](Cc1ccccc1)NC(=O)O[C@H]1CO[C@H]2OCC[C@H]21)S(=O)(=O)c1ccc(N)cc1 [drawing 189],IC50,HIV-1LAI; [3],< 10 nM
COc1ccc(C[C@H](NC(=O)O[C@H]2CCO[C@H]3OCC[C@H]32)[C@H](O)CN(C[C@H]2CCC(=O)N2)S(=O)(=O)c2ccc(OC)cc2)cc1 [compound 3],Ki,HIV-1 protease,< 0.1 nM
same,IC50,HIV-1LAI; [1],100 to 1000 nM
Cc1cccc(C)c1OCC(=O)N[C@@H](Cc1ccccc1)[C@@H](O)C[C@H](Cc1ccccc1)NC(=O)[C@H](C(C)C)N1CCCNC1=O [LPV],EC50,HIV-1MDR/B (X4),> 1000 nM
same,EC50,HIV-1MDR/JSL (R5),> 1000 nM
"COc1ccc(S(=O)(=O)N(CC(C)C)C[C@@H](O)[C@H](Cc2ccccc2)NC(=O)O[C@H]2CCC[C@H]3OCC[C@@H]23)cc1 [35c, (3aR,4S,7aR)-Octahydrobenzofuran-4-yl(2S,3R)-3-hydroxy-4-(N-isobutyl-4-methoxyphenylsulfonamido)-1-phenylbutan-2-yl carbamate]",fold change in Ki compared to inhibitor 35a,HIV-1 protease,2 fold
same,Ki,HIV-1 protease; read-out: Ki,0.005 nM
same,IC50,HIV-1LAI; [4],8 nM
same,fold decrease in antiviral activity compared to inhibitor 35a,"HIV-1LAI; MT-2 cells, HIV-1LAI",16 fold
COc1ccc(C[C@H](NC(=O)O[C@H]2CCO[C@H]3OCC[C@H]32)[C@H](O)CN(CC(C)C)S(=O)(=O)c2ccc(OC)cc2)cc1 [compound 2],Ki,HIV-1 protease,< 0.1 nM
same,IC50,HIV-1LAI; [1],< 1 nM
"COc1ccc(S(=O)(=O)N(CC(C)C)C[C@@H](O)[C@H](Cc2ccccc2)NC(=O)O[C@H]2CCO[C@H]3COC[C@H]32)cc1 [35f, (4S,4aS,7aR)-Hexahydro-2H-furo[3,4-b]pyran-4-yl((2S,3R)-3-hydroxy-4-(N-isobutyl-4-methoxyphenylsulfonamido)-1-phenylbutan-2-yl)carbamate]",protease inhibitory activity,HIV-1 protease,substantial loss of potency
same,Ki,HIV-1 protease; read-out: Ki,5.3 nM
same,IC50,HIV-1LAI; [2],> 1000 nM
same,antiviral activity,"HIV-1LAI; MT-2 cells, HIV-1LAI",no antiviral activity
"CC(C)CN(C[C@@H](O)[C@H](Cc1ccccc1)NC(=O)O[C@H]1CCOC1)S(=O)(=O)c1ccc(N)cc1 [amprenavir, reference compound]",IC50,HIV-1LAI; [4],30 nM
CC(C)CN(C[C@@H](O)[C@H](Cc1ccccc1)NC(=O)O[C@H]1CCO[C@H]2OCC[C@H]21)S(=O)(=O)c1ccc(N)cc1 [compound 36],Ki,HIV-1 protease; read-out: Ki,0.01 nM
same,IC50,HIV-1LAI; [2],6.5 nM
"COc1ccc(S(=O)(=O)N(CC(C)C)C[C@@H](O)[C@H](Cc2ccccc2)NC(=O)O[C@H]2CO[C@H]3OCC[C@H]3C2)cc1 [35g, (3aS,5R,7aR)-Hexahydro-2H-furo[2,3-b]pyran-5-yl((2S,3R)-3-hydroxy-4-(N-isobutyl-4-methoxyphenylsulfonamido)-1-phenylbutan-2-yl)carbamate]",protease inhibitory activity,HIV-1 protease,substantial loss of protease inhibitory activity
same,Ki,HIV-1 protease; read-out: Ki,0.11 nM
